# Results published in EP2450046B1, “A MEDICINAL COMPOSITION FOR THE TREATMENT OF BRONCHITIS AND PREPARATION THEREOF” (Hebei Yiling Medicine Research Institute Co., Ltd., priority 2009, dated 2011).
# Like-named read-outs stand apart in the source and are kept apart here.
# Experiments:
# [1] = tested on: xylene-induced ear swelling in mice; experiment: Effect on xylene-induced ear swelling in mice; assay type: in vivo, Kunming male mice; details: Aspirin 0.2 g/kg i.g. q.d. 3 days; weight of right minus left ear piece; n=10
# Text: Sixty Kunming male mice of Grade II with the mean body weight of 19.77 ± 0.91 g, provided by the breeding farm of the Institute of Laboratory Animal Science, Chinese Academy of Medical Sciences, License number: SCXK (Jing) 2000-0006. • (1) The present medication to be tested, 6.25 g crude drugs/g, provided by […] Pharmaceutical Co. […] SFDA Approval No. Z-11; Lot number of the product: 060112; valid until December 2007. • (3) Aspirin enteric-coated tablet as a western medicine control, 0.3 g/tablet, produced by Yantai the Second Pharmaceutical Factory), lot number: 011102. The above-described medications were formulated with distilled water into the required concentrations in the experiment. Sixty healthy mice were randomly assigned into the following six groups with 10 animals per group: […] (2) the Aspirin group (0.2 g/kg); (3) the […] group (2 g crude drugs/kg); (4) the low dosage group of the present medication (L-dosage group, 3g crude drugs/kg); (5) the medium dosage group of the present medication (M-dosage group, 6g crude drugs/kg); (6)the high dosage group of the present medication (H-dosage group, 12g crude drugs/kg). […] Fifteen minutes later, the animal was sacrificed by dislocation. […] The degree of ear swelling for each mouse was calculated by subtraction of the weight of the left piece from that of the right piece. […]
# [2] = tested on: carrageenan-induced swelling of rat's footpad; experiment: Effect on carrageenan-induced swelling of rat's footpad; assay type: in vivo, Wistar male rats; details: for Foot volume after inflammation / Foot volume, Difference / Swelling rate / inhibition at 150 mg/kg: Aspirin 0.15 g/kg i.g. q.d. 3 days; for inhibition at 150 mg/kg: Rattus norvegicus, po, read-out: Inhibition rate
# Method: • (1) The present medication to be tested, 6.25g crude drugs/g, provided by […] Pharmaceutical Co. […] SFDA Approval No. Z-11; […] The above-described medications were prepared into the required concentrations with distilled water in the experiment. • (4) Carrageenan, from SIGMA, lot number: 117H0151, prepared into required concentrations for the experiment. Sixty while Wistar male rats of Grade I with the mean body weight of 157.05 ± 8.49 g, provided by Institute of Laboratory Animal Science, Chinese Academy of Medical Sciences, License number: […] The sixty healthy rats were randomly assigned into the following six groups: (1) the blank control group administered with distilled water (10 ml/kg); […] (3) the […] group (1.5 g crude drugs/kg); (4) the low dosage group of the present medication (L-dosage group, 2 g crude drugs/kg); (5) the medium dosage group of the present medication (M-dosage group, 4 g crude drugs/kg); (6)the high dosage group of the present medication (H-dosage group, 8 g crude drugs/kg). The volume of the left hind foot of each animal determined by capillary amplification method was used as the value prior to administration. […] Comparisons among the groups were performed on the difference between the left foot volumes before and after inflammation by t-test.
# [3] = tested on: tampon-induced granuloma in rats; experiment: Effect on small tampon-induced granuloma in rats; assay type: in vivo; details: Aspirin 0.15 g/kg i.g. q.d. 7 days; n=10
# Text: Sixty Wistar […] of Grade II evenly composed of males and females with the mean body weight of 132.37 ± 6.31 g, provided by the breeding farm of the Institute of Laboratory Animal Science, Chinese […] of Medical Sciences, and License number: SCXK (Jing) 2000-0006. • (1) The present medication to be tested, 6.25 g crude drugs/g, provided by […] Pharmaceutical Co. […] No. Z-11; Lot number: 060112. • (3) Aspirin Enteric-coated Tablet as a western medicine control, 0.3 g/tablet, produced by Yantai the Second Pharmaceutical Factory), lot number: 051102. The medication was prepared to required concentrations with distilled water in the experiment. • (4) Ampicillin Sodium Injection (ASI), 0.5 g/bottle, Produced by North China Pharmaceutical Co., Ltd. lot number: F0111207. […] The average wet and dry weights of the post-inflammation granuloma for each of the groups were calculated, from which the original weight of the cotton ball had been subtracted, and were compared among the groups by t-test.
smiles,measurement,setting,value
CC(=O)Oc1ccccc1C(=O)O [Aspirin],Swelling rate,[1],3.50 ± 0.71 mg
same,Foot volume after inflammation,[2]; 0.5h,1.19 ± 0.04 mL
same,"Foot volume, Difference",[2]; 0.5h,0.21 ± 0.05 mL
same,Swelling rate,[2]; 0.5h,21.4±5.49 %
same,Foot volume after inflammation,[2]; 1h,1.23 ± 0.04 mL
same,"Foot volume, Difference",[2]; 1h,0.25 ± 0.03 mL
same,Swelling rate,[2]; 1h,25.4±3.87 %
same,Foot volume after inflammation,[2]; 2h,1.27 ± 0.02 mL
same,"Foot volume, Difference",[2]; 2h,0.29 ± 0.03 mL
same,Swelling rate,[2]; 2h,29.7±4.00 %
same,Foot volume after inflammation,[2]; 4h,1.30 ± 0.04 mL
same,"Foot volume, Difference",[2]; 4h,0.32 ± 0.04 mL
same,Swelling rate,[2]; 4h,32.80±4.78 %
same,Foot volume after inflammation,[2]; 6h,1.24 ± 0.03 mL
same,"Foot volume, Difference",[2]; 6h,0.26 ± 0.04 mL
same,Swelling rate,[2]; 6h,26.26±3.95 %
same,Foot volume before inflammation,"[2]; Aspirin group 0.15 g/kg, baseline, n=10",0.98 ± 0.03 mL
same,inhibition at 150 mg/kg,[2]; 0.5h,41.5%
same,inhibition at 150 mg/kg,[2]; 1h,41.2%
same,inhibition at 150 mg/kg,[2]; 2h,38.6%
same,inhibition at 150 mg/kg,[2]; 4h,32.1%
same,inhibition at 150 mg/kg,[2]; 6h,45.6%
same,Dry weight of granuloma,[3],99.20 ± 10.16 mg
same,Wet weight of granuloma,[3],457.85 ± 50.01 mg
